Converted amounts (≈) assume the structure as drawn.
Assays:
Aspergillus fumigatus = assay: Antimycotic in vitro activity, serial dilution test (MIC), Aspergillus fumigatus; assay type: cell-based; conditions: Kimmig's test medium, 28° to 37° C., 96 hours
Method: (§1) The in vitro tests were carried out in a serial dilution test using inocula of microorganisms of on average 5×10^3 to 10^4 microorganisms/ml of substrate. The nutrient medium used was
(§2) (a) for dermatophytes and Hyphomycetes: Kimmig's test medium
(§3) The incubation temperature was 28° to 37° C., and the incubation period was 24 to 48 hours with yeasts and 96 hours with Dermatophytes and hyphomycetes.

Candida albicans = assay: Antimycotic in vitro activity, serial dilution test (MIC), Candida albicans; assay type: cell-based; conditions: Meat extract-dextrose broth, 28° to 37° C., 24 to 48 hours
Method: (§4) The in vitro tests were carried out in a serial dilution test using inocula of microorganisms of on average 5×10^3 to 10^4 microorganisms/ml of substrate. The nutrient medium used was (b) for yeasts: Meat extract-dextrose broth. The incubation temperature was 28° to 37° C., and the incubation period was 24 to 48 hours with yeasts and 96 hours with Dermatophytes and hyphomycetes.

Trichophyton mentagr. = assay: Antimycotic in vitro activity, serial dilution test (MIC), Trichophyton mentagrophytes; assay type: cell-based; conditions: Kimmig's test medium, 28° to 37° C., 96 hours
Method: as §1, §2, §3

Torulopsis glabrata = assay: Antimycotic in vitro activity, serial dilution test (MIC), Torulopsis glabrata; assay type: cell-based; conditions: Nakaseomyces glabratus; Meat extract-dextrose broth; 28° to 37° C.; 24 to 48 hours
Method: as §4

[1] = system: dermatophytes, Hyphomycetes and yeasts; assay: Antimycotic in vitro activity, serial dilution test, overall comparison with the prior art; assay type: cell-based; conditions: in words
Method: as §1, §2
Meat extract-dextrose broth.
as §3

Candida = assay: Antimycotic in vivo activity (oral) in mouse candidosis; parameters: species or system mouse (SPF-CF1); conditions: 10 to 100 mg/kg; for action in mouse candidosis, in words / Action (oral) in mouse candidosis: 6th day p.i.; for Action (oral) in mouse candidosis: one hour before and seven hours after infection; for surviving on the 6th day p.i.: untreated control about 5% survival
Method: Mice of the SPF-CF1 type were infected intravenously with 1-2×10^6 exponentially growing Candida cells which are suspended in physiological saline solution. One hour before and seven hours after infection, the animals are treated orally in each case with 10 to 100 mg/kg of body weight of the preparation. Untreated animals died on the 3rd to 6th day post-infection. The survival rate on the 6th day post-infection was about 5% in untreated control animals.

[2] = system: Trichophyton mentagrophytes; assay: Antimicrobial in vivo activity (topical) in the experimental guinea-pig trichophytosis model; parameters: species or system guinea-pig (Pirbright white); conditions: 1 × daily, 0.1% strength solution, from 3rd day
Method: White guinea-pigs of the Pirbright white strain are infected on the shaven, non-scarified back with a micro- and macroconidia suspension of Trichophyton mentagrophytes. The infected animals were treated topically 1 × daily with a 0.1% strength solution of the preparation according to the invention (in dimethyl sulphoxide: glycerol=1.4) beginning with the 3rd day. In untreated animals, the typical picture of a dermatophytosis with reddening, scaling and hair loss up to total integumental defect of the infection site developed within 12 days p.i.

Row | Structure (SMILES) | MIC (Aspergillus fumigatus) | MIC (Candida albicans) | MIC (Trichophyton mentagr.) | MIC (Torulopsis glabrata) | antimycotic action compared with compounds (A) and (B) known from the prior art [1] | action in mouse candidosis, in words (Candida) | Action (oral) in mouse candidosis (Candida) | surviving on the 6th day p.i. (Candida) | action in guinea-pig trichophytosis, in words [2]
1 | OC(Cn1cncn1)(Cn1cncn1)c1cccc(Cl)c1 [(A), reference compound] | > 64 µg/mL | > 64 µg/mL | 32 µg/mL (≈ 105 µM) | > 64 µg/mL |  |  |  |  | 
2 | OC(Cn1cncn1)(Cn1cncn1)c1ccccc1 [(B), reference compound] | > 64 µg/mL | 64 µg/mL (≈ 237 µM) | 64 µg/mL (≈ 237 µM) | > 64 µg/mL |  |  |  |  | 
3 | OC(Cn1cncn1)(c1ccc(Cl)cc1)C1(n2cnc(Cl)n2)CC1 (stereo not shown) [Example 4, 1-(4-Chlorophenyl)-1-[1-(3-chloro-1,2,4-triazol-1-yl)-cyclopropyl]-2-(1,2,4-triazol-1-yl)-ethan-1-ol] | 32 µg/mL (≈ 87.6 µM) | 8 µg/mL (≈ 21.9 µM) | 4 µg/mL (≈ 11 µM) | > 64 µg/mL | better antimycotic action than the compounds (A) and (B) | good to very good action | +++++ (very good action = 90% surviving on the 6th day p.i.) | > 80% | 
4 | OC(Cn1cncn1)(c1ccccc1)C1(n2cnc(Cl)n2)CC1 (stereo not shown) [Example 6, 1-[1-(3-Chloro-1,2,4-triazol-1-yl)-cyclopropyl]-1-phenyl-2-(1,2,4-triazol-1-yl)-ethan-1-ol] | 16 µg/mL (≈ 48.4 µM) | 32 µg/mL (≈ 96.7 µM) | 8 µg/mL (≈ 24.2 µM) | > 64 µg/mL | better antimycotic action than the compounds (A) and (B) | good to very good action | +++++ (very good action = 90% surviving on the 6th day p.i.) | > 80% | good action
5 | OC(Cn1cncn1)(c1ccc(F)cc1)C1(n2cnc(Cl)n2)CC1 (stereo not shown) [Example 7, 1-[1-(3-Chloro-1,2,4-triazol-1-yl)-cyclopropyl]-1-(4-fluorophenyl)-2-(1,2,4-triazol-1-yl)-ethan-1-ol] | 32 µg/mL (≈ 91.8 µM) | 32 µg/mL (≈ 91.8 µM) | 8 µg/mL (≈ 22.9 µM) | > 64 µg/mL | better antimycotic action than the compounds (A) and (B) | good to very good action | +++++ (very good action = 90% surviving on the 6th day p.i.) | > 80% | 
6 | Cc1ccc(C(O)(Cn2cncn2)C2(n3cnc(Cl)n3)CC2)cc1 (stereo not shown) [Example 8, 1-[1-(3-Chloro-1,2,4-triazol-1-yl)-cyclopropyl]-1-(4-methylphenyl)-2-(1,2,4-triazol-1-yl)-ethan-1-ol] | 16 µg/mL (≈ 46.4 µM) | 16 µg/mL (≈ 46.4 µM) | 4 µg/mL (≈ 11.6 µM) | > 64 µg/mL | better antimycotic action than the compounds (A) and (B) |  |  |  | 
7 | OC(Cn1cncn1)(c1ccc(-c2ccccc2)cc1)C1(n2cnc(Cl)n2)CC1 (stereo not shown) [Example 9, 1-(4-Biphenyl)-1-[1-(3-chloro-1,2,4-triazol-1-yl)-cyclopropyl]-2-(1,2,4-triazol-1-yl)-ethan-1-ol] | 16 µg/mL (≈ 39.3 µM) | 32 µg/mL (≈ 78.6 µM) | 4 µg/mL (≈ 9.83 µM) | 16 µg/mL (≈ 39.3 µM) | better antimycotic action than the compounds (A) and (B) |  |  |  | 
8 | OC(Cn1cncn1)(c1ccc(F)cc1F)C1(n2cnc(Cl)n2)CC1 (stereo not shown) [Example 10, 1-[1-(3-Chloro-1,2,4-triazol-1-yl)-cyclopropyl]-1-(2,4-difluorophenyl)-2-(1,2,4-triazol-1-yl)-ethan-1-ol] | 16 µg/mL (≈ 43.6 µM) | 32 µg/mL (≈ 87.3 µM) | 16 µg/mL (≈ 43.6 µM) | > 64 µg/mL | better antimycotic action than the compounds (A) and (B) | good to very good action | +++++ (very good action = 90% surviving on the 6th day p.i.) | > 80% | good action
9 | OC(Cn1cncn1)(c1ccc(F)c(F)c1)C1(n2cnc(Cl)n2)CC1 (stereo not shown) [Example 11, 1-[1-(3-Chloro-1,2,4-triazol-1-yl)-cyclopropyl]-1-(3,4-difluorophenyl)-2-(1,2,4-triazol-1-yl)-ethan-1-ol] | 64 µg/mL (≈ 175 µM) | 16 µg/mL (≈ 43.6 µM) | 16 µg/mL (≈ 43.6 µM) | > 64 µg/mL | better antimycotic action than the compounds (A) and (B) | good to very good action | +++++ (very good action = 90% surviving on the 6th day p.i.) | > 80% | good action

— patent US5126359A, “Substituted bisazoles and their use as medicaments” (Bayer Aktiengesellschaft, priority 1988, dated 1992)
